Test results: patent publication US20090092631A1, “GLYCOSYLATED SPECIFICITY EXCHANGERS THAT INDUCE AN ANTIBODY DEPENDENT CELLULAR CYTOTOXICITY (ADCC) RESPONSE” (priority 2007, published 2009)

System: HIV-1 IIIB
Assay: Neutralization assay (plaque-forming units/syncytia) in U87 cells expressing CD4 and co-receptor
Format: cell-based
Protocol: Once it had been determined that the glycosylated specificity exchangers appreciably bound gp120 and human antibody, the antiviral activity of the glycosylated specificity exchangers was evaluated using a neutralization assay that is recognized in the art to reasonably predict the therapeutic efficacy of an HIV vaccine. (See Y. Shi et al., “A new cell line-based neutralization assay for primary HIV type 1 isolates,” AIDS Res Hum Retroviruses 18:957-967 (2002), herein expressly incorporated by reference in its entirety). By this approach, HIV infection of U87 cells that express CD4 and one of the major co-receptors (either CXCR4 or CCR5) were challenged with the glycosylated specificity exchangers and human serum during competition with the CD4 receptor. The infected cells form syncytia, that is, plaques, that were stained and enumerated by light microscopy. Neutralization was then determined by the ability of human serum and glycosylated specificity exchanger to reduce the number of plaque-forming units (PFU) relative to controls.
In brief, the U87 cells were seeded onto a 48 well plate at a concentration of 100,000 cell/well 1 day prior infection with HIV-1 IIIB. On the day of infection, glycosylated specificity exchangers (Seq. ID. Nos. 4-9), human serum and virus stock were diluted in culture medium and incubated in a separate 48 well plate, to a final dilution of 1:10/1:20 for the serum and an appropriate concentration of the virus, according to the titration. The glycosylated specificity exchangers were analyzed at different concentrations to determine the minimal amount required for antiviral activity. The glycosylated specificity exchanger-serum-virus mixture was kept at 37° C. for 1 hr. Then, two hundred microliters of each dilution was distributed into wells containing the U87/CD4 cells. The experiment was performed in quadruplicate in the same plate and in five separate plates.
Controls for the assay included glycosylated specificity exchanger without the coupled sugar, the glycosylated specificity exchanger (coupled with the sugar) and a 1:10/1:20 dilution of heat inactivated human serum, cells and medium only, and cells and medium and serum. […]

[1] = Glycosylated Sp. Exchanger & 1:10 dilution human serum, 0.1 ug/ml, 0.3 equals 30% inhibition
[2] = Glycosylated Sp. Exchanger & 1:10 dilution human serum, 1 ug/ml, 0.3 equals 30% inhibition
[3] = Glycosylated Sp. Exchanger & 1:10 dilution human serum, 10 ug/ml, 0.3 equals 30% inhibition
[4] = Glycosylated Sp. Exchanger & 1:20 dilution human serum, 0.1 ug/ml, 0.3 equals 30% inhibition
[5] = Glycosylated Sp. Exchanger & 1:20 dilution human serum, 1 ug/ml, 0.3 equals 30% inhibition
[6] = Glycosylated Sp. Exchanger & 1:20 dilution human serum, 10 ug/ml, 0.3 equals 30% inhibition
[7] = Glycosylated Sp. Exchanger, 1 ug/ml, 0.3 equals 30% inhibition
[8] = Glycosylated Sp. Exchanger, 10 ug/ml, 0.3 equals 30% inhibition
[9] = Glycosylated Sp. Exchanger, 0.1 ug/ml, 0.3 equals 30% inhibition
[10] = CD4 peptide Alone (without coupled sugar), 0.1 ug/ml, 0.3 equals 30% inhibition
[11] = CD4 peptide Alone (without coupled sugar), 1 ug/ml, 0.3 equals 30% inhibition
[12] = CD4 peptide Alone (without coupled sugar), 10 ug/ml, 0.3 equals 30% inhibition of HIV replication (syncytia formation)

With “8 (TKGPSKLNDRADSRR; Homo sapien) [compound 8]” the “neutralization of the virus” value [1] was 0.778, the “neutralization of the virus” value [2] was 0.821 and the “neutralization of the virus” value [3] was 0.83. The “neutralization of the virus” value [4] was 0.701, the “neutralization of the virus” value [5] was 0.667 and the “neutralization of the virus” value [6] was 0.642. The “neutralization of the virus” value [7] was 0.548 and the “neutralization of the virus” value [8] was 0.552.
For “9 (KLNDRADSRRSLWDQ; Homo sapien) [compound 9]”, the “neutralization of the virus” value [1] was 0.76, the “neutralization of the virus” value [2] was 0.75 and the “neutralization of the virus” value [3] was 0.78. For the same substance, the “neutralization of the virus” value (Glycosylated Sp. Exchanger & 1:10 dilution human serum, 100 ug/ml, 0.3 equals 30% inhibition) was 0.75, the “neutralization of the virus” value [4] was 0.71 and the “neutralization of the virus” value [5] was 0.75. For the same substance, the “neutralization of the virus” value [6] was 0.74, the “neutralization of the virus” value (Glycosylated Sp. Exchanger & 1:20 dilution human serum, 100 ug/ml, 0.3 equals 30% inhibition) was 0.734 and the “neutralization of the virus” value [9] was “neg (Neg = negative <0.30)”. The “neutralization of the virus” value [7] was “neg (Neg = negative <0.30)”, the “neutralization of the virus” value [8] was “neg (Neg = negative <0.30)” and the “neutralization of the virus” value (Glycosylated Sp. Exchanger, 100 ug/ml, 0.3 equals 30% inhibition) was “neg (Neg = negative <0.30)”.
For “7 (QGSFLTKGPSKLNDR; Homo sapien) [compound 7]”, the “neutralization of the virus” value [10] was “neg (Neg = negative <0.30)”, the “neutralization of the virus” value [11] was “neg (Neg = negative <0.30)” and the “neutralization of the virus” value [12] was “neg (Neg = negative <0.30)”. For the same substance, the “neutralization of the virus” value [1] was 0.439, the “neutralization of the virus” value [2] was 0.461 and the “neutralization of the virus” value [3] was 0.454. For the same substance, the “neutralization of the virus” value [4] was “neg (Neg = negative <0.30)”, the “neutralization of the virus” value [5] was “neg (Neg = negative <0.30)” and the “neutralization of the virus” value [6] was “neg (Neg = negative <0.30)”. For the same substance, the “neutralization of the virus” value [9] was “neg (Neg = negative <0.30)”, the “neutralization of the virus” value [7] was “neg (Neg = negative <0.30)” and the “neutralization of the virus” value [8] was “neg (Neg = negative <0.30)”.
For “6 (KILGNQGSFLTKGPS; Homo sapien) [compound 6]”, the “neutralization of the virus” value [10] was “neg (Neg = negative <0.30)”, the “neutralization of the virus” value [11] was “neg (Neg = negative <0.30)” and the “neutralization of the virus” value [12] was “neg (Neg = negative <0.30)”. For the same substance, the “neutralization of the virus” value [1] was 0.50, the “neutralization of the virus” value [2] was 0.42 and the “neutralization of the virus” value [3] was 0.60. For the same substance, the “neutralization of the virus” value [4] was “neg (Neg = negative <0.30)”, the “neutralization of the virus” value [5] was “neg (Neg = negative <0.30)” and the “neutralization of the virus” value [6] was “neg (Neg = negative <0.30)”. For the same substance, the “neutralization of the virus” value [9] was “neg (Neg = negative <0.30)”.
